Source: US20030078251A1, “Benzoxazepinones and their use as squalene synthase inhibitors” (priority 2000, published 2003)

What was measured:
squalene synthase = target: T1, squalene synthase (Homo sapiens, UniProt P37268); test: Squalene synthase inhibiting activity (Test Example 1); assay type: biochemical; settings: enzyme solution from human hepatic cancer cell HepG2; 5 μM [1-3H] farnesyl pyrophosphate, 37° C., 45 minutes; read-out: Inhibiting activity (IC50, 10^−9M)
T1 construct: endogenous in cells; host or cells: HepG2 (human hepatic cancer cells); sediment of the 105000 x g centrifugation (microsomal fraction)
T1 sequence (P37268 1-417): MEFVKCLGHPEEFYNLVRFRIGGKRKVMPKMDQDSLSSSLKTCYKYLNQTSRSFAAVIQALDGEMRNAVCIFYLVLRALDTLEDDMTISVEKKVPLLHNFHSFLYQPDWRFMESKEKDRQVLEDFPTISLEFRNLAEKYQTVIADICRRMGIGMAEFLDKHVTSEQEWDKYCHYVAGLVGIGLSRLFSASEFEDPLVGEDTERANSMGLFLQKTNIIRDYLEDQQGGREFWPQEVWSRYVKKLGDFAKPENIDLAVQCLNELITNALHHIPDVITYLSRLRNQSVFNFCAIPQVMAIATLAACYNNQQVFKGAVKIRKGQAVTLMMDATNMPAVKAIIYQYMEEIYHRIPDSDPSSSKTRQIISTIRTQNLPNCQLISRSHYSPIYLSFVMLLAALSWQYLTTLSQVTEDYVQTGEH
Protocol: Squalene Synthase Inhibiting Activity
The squalene synthase inhibiting activity was measured using an enzyme solution obtained according to a preparing method described below as follows:
That is, an enzyme solution (protein 0.8 μg) prepared according to the following preparing method was added to a solution containing 5 μM [1-^3H] farnesyl pyrophosphate (specific activity […]), 1 mM NADPH (reduced type nicotinamide adenine dinucleotide phosphate), 5 mM MgCl2, 6 mM glutathione, 100 mM potassium phosphate buffer (pH 7.4) and a test drug (added as an aqueous solution or DMSO solution)(total amount 50 μl), which was reacted at 37° C. for 45 minutes. 150 μl of a mixed solution of chloroform and methanol (1:2) was added to stop the reaction, and 50 μl of chloroform and 50 μl of a 3N sodium hydroxide solution were added. 50 μl of the chloroform layer (lower layer) containing the reaction product, a main component of which is squalene, and 3 ml of toluene series liquid scintillator were mixed, and the radioactivity thereof was measured by a liquid scintillation counter.
The squalene synthase inhibiting activity was shown by the concentration at which 50% of the radioactivity […] into the chloroform layer (IC50, molar concentration (M)).
Preparation of Human Enzyme Solution
Human hepatic cancer cell HepG2 (about 1×10^9 cells) was grown in Dulbecco's modified Eagle medium (37° C., in the presence of 5%CO2) containing 10% bovine fetal serum, the resulting cells were suspended in 10 ml of ice-cooled buffer [100 mM potassium phosphate buffer (pH 7.4), 30 mM nicotinamide, 2.5 mM MgCl2], and ruptured by the ultrasonication (30 seconds, 2 times). The resulting sonicate was centrifuged at 10000× g for 20 minutes (4° C.). The resulting supernatant was centrifuged at 105000× g for 90 minutes (4° C.), then the sediment was suspended in an ice-cooled 100 mM potassium phosphate buffer (pH 7.4), and centrifuged again at 105000× g for 90 minutes (4° C.). This was suspended in an ice-cooled 100 mM potassium phosphate buffer (pH 7.4) (protein concentration about 4 mg/ml), which was used as an enzyme solution.

| IC50 (squalene synthase) | melting point | SMILES |
| --- | --- | --- |
| 25 nM | 126 to 129 °C | COc1cccc([C@H]2O[C@H](CC(=O)NCCc3occc3C(=O)O)C(=O)N(CC(C)(C)CO)c3ccc(Cl)cc32)c1OC [Example 26, 2-[2-[[[(3R,5S)-7-chloro-5-(2,3-dimethoxyphenyl)-1-(2,2-dimethyl-3-hydroxypropyl)-2-oxo-1,2,3,5-tetrahydro-4,1-benzoxazepin-3-yl]acetyl]amino]ethyl]furan-3-carboxylic acid] |
| 120 nM | 141 to 144 °C | COc1cccc([C@H]2O[C@H](CC(=O)Nc3cccc(CCC(=O)O)c3)C(=O)N(CC(C)(C)CO)c3ccc(Cl)cc32)c1OC [Example 35, 3-[3-[[(3R,5S)-7-chloro-5-(2,3-dimethoxyphenyl)-1-(3-hydroxy-2,2-dimethylpropyl)-2-oxo-1,2,3,5-tetrahydro-4,1-benzoxazepin-3-yl]acetyl]aminophenyl]propionic Acid] |
| 50 nM | 172 to 173 °C | COc1cccc([C@H]2O[C@H](CC(=O)Nc3cccc(CCC(=O)O)c3)C(=O)N(CC(C)(C)C)c3ccc(Cl)cc32)c1OC [Example 60, 3-[3-[[(3R,5S)-7-chloro-5-(2,3-dimethoxyphenyl)-1-neopentyl-2-oxo-1,2,3,5-tetrahydro-4,1-benzoxazepin-3-yl]acetyl]aminophenyl]propionic Acid] |
| 21 nM | 129 to 132 °C | COc1cccc([C@H]2O[C@H](CC(=O)NCc3ccc(CC(=O)O)cc3)C(=O)N(CC(C)(C)CO)c3ccc(Cl)cc32)c1OC [Example 61, 4-[[[(3R,5S)-7-chloro-5-(2,3-dimethoxyphenyl)-1-(3-hydroxy-2,2-dimethylpropyl)-2-oxo-1,2,3,5-tetrahydro-4,1-benzoxazepin-3-yl]acetyl]aminomethyl]phenylacetic acid] |
| 37 nM | – | COc1cccc([C@H]2O[C@H](CC(=O)NCc3cccc(CCC(=O)O)c3)C(=O)N(CC(C)(C)CO)c3ccc(Cl)cc32)c1OC [Example 64, 3-[3-[[[(3R,5S)-7-chloro-5-(2,3-dimethoxyphenyl)-1-(3-hydroxy-2,2-dimethylpropyl)-2-oxo-1,2,3,5-tetrahydro-4,1-benzoxazepin-3-yl]acetyl]aminomethyl]phenyl]propionic Acid] |

Further lines, the compound ahead of its results:

| SMILES | IC50 (squalene synthase) | melting point |
| --- | --- | --- |
| CCCS(=O)(=O)NC(=O)C[C@H]1O[C@H](c2cccc(OC)c2OC)c2cc(Cl)ccc2N(CC(C)(C)CO)C1=O [Example 2, (3R,5S)-N-propanesulfonyl-7-chloro-5-(2,3-dimethoxyphenyl)-1-(3-hydroxy-2,2-dimethylpropyl)-2-oxo-1,2,3,5-tetrahydro-4,1-benzoxazepine-3-acetamide] | 54 nM | 135 to 137 °C |
| COc1cccc([C@H]2O[C@H](CC(=O)N[C@H](C)C(=O)O)C(=O)N(CC(C)(C)C)c3ccc(Cl)cc32)c1OC [Example 18, (2R)-2-[[(3R,5S)-7-chloro-5-(2,3-dimethoxyphenyl)-1-neopentyl-2-oxo-1,2,3,5-tetrahydro-4,1-benzoxazepin-3-yl]acetyl]aminopropionic Acid] | 10 nM | 184 to 186 °C |
| COc1cccc([C@H]2O[C@H](CC(=O)NC[C@H]3CC[C@H](C(=O)O)CC3)C(=O)N(CC(C)(C)CO)c3ccc(Cl)cc32)c1OC [Example 23, trans-4-[[(3R,5S)-7-chloro-5-(2,3-dimethoxyphenyl)-1-(3-hydroxy-2,2-dimethylpropyl)-2-oxo-1,2,3,5-tetrahydro-4,1-benzoxazepin-3-yl]acetyl]aminomethyl-1-cyclohexanecarboxylic acid] | 99 nM | – |
| COc1cccc([C@H]2O[C@H](CC(=O)NC[C@H]3CC[C@H](C(=O)O)CC3)C(=O)N(CC(C)(C)COC(C)=O)c3ccc(Cl)cc32)c1OC [Example 24, trans-4-[[(3R,5S)-1-(3-acetoxy-2,2-dimethylpropyl)-7-chloro-5-(2,3-dimethoxyphenyl)-2-oxo-1,2,3,5-tetrahydro-4,1-benzoxazepin-3-yl]acetyl]aminomethyl-1-cyclohexanecarboxylic acid] | 170 nM | – |
| COc1cccc([C@H]2O[C@H](CC(=O)NCc3ccoc3C(=O)O)C(=O)N(CC(C)(C)CO)c3ccc(Cl)cc32)c1OC [Example 30, 3-[[[[(3R,5S)-7-chloro-5-(2,3-dimethoxyphenyl)-1-(2,2-dimethyl-3-hydroxypropyl)-2-oxo-1,2,3,5-tetrahydro-4,1-benzoxazepin-3-yl]acetyl]amino]methyl]furan-2-carboxylic acid] | 9.1 nM | 125 to 128 °C |
| COc1ccc(CCC(=O)O)cc1NC(=O)C[C@H]1O[C@H](c2cccc(OC)c2OC)c2cc(Cl)ccc2N(CC(C)(C)CO)C1=O [Example 37, 3-[3-[[(3R,5S)-7-chloro-5-(2,3-dimethoxyphenyl)-1-(3-hydroxy-2,2-dimethylpropyl)-2-oxo-1,2,3,5-tetrahydro-4,1-benzoxazepin-3-yl]acetyl]amino-4-methoxyphenyl]propionic Acid] | 94 nM | – |
| COc1cccc([C@H]2O[C@H](CC(=O)Nc3cc(CCC(=O)O)ccc3F)C(=O)N(CC(C)(C)CO)c3ccc(Cl)cc32)c1OC [Example 53, 3-[3-[[[(3R,5S)-7-chloro-5-(2,3-dimethoxyphenyl)-1-(3-hydroxy-2,2-dimethylpropyl)-2-oxo-1,2,3,5-tetrahydro-4,1-benzoxazepin-3-yl]acetyl]amino]-4-fluorophenyl]propionic Acid] | 40 nM | 151 to 152 °C |
| COc1cccc([C@H]2O[C@H](CC(=O)Nc3cc(CCC(=O)O)ccc3C)C(=O)N(CC(C)(C)CO)c3ccc(Cl)cc32)c1OC [Example 55, 3-[3-[[(3R,5S)-7-chloro-5-(2,3-dimethoxyphenyl)-1-(3-hydroxy-2,2-dimethylpropyl)-2-oxo-1,2,3,5-tetrahydro-4,1-benzoxazepin-3-yl]acetyl]amino-4-methylphenyl]propionic Acid] | 16 nM | 154 to 155 °C |
